Measurements reported in patent publication US8334382B2, “Substituted biaryl piperazinyl-pyridine analogues” (Neurogen Corporation, priority 2004, dated 2012).

Target: T1, human capsaicin receptor (Homo sapiens, UniProt Q8NER1)
T1 construct: expressed in transfected cells; host or cells: HEK293, stably transfected with pBK-CMV construct
Experiment: Calcium mobilization assay, determination of antagonist activity
Assay type: cell-based
Details: capsaicin at EC50; cells expressing human capsaicin receptor; Example 6
Protocol: A cDNA encoding full length human capsaicin receptor (SEQ ID NO:1, 2 or 3 of U.S. Pat. No. 6,482,611) is subcloned in the plasmid pBK-CMV (Stratagene, La Jolla, Calif.) for recombinant expression in mammalian cells.
Human embryonic kidney (HEK293) cells are transfected with the pBK-CMV expression construct encoding the full length human capsaicin receptor using standard methods. The transfected cells are selected for two weeks in media containing G418 (400 μg/ml) to obtain a pool of stably transfected cells. Independent clones are isolated from this pool by limiting dilution to obtain clonal stable cell lines for use in subsequent experiments.
Cells transfected with expression plasmids (as described in Example 4) and thereby expressing human capsaicin receptor are seeded and grown to 70-90% confluency in FALCON black-walled, clear-bottomed 96-well plates (#3904, BECTON-DICKINSON, Franklin Lakes, N.J.). The culture medium is emptied from the 96 well plates and FLUO-3 AM calcium sensitive dye (Molecular Probes, Eugene, Oreg.) is added to each well (dye solution: 1 mg FLUO-3 AM, 440 μL DMSO and 440 μl 20% pluronic acid in DMSO, diluted 1:250 in Krebs-Ringer HEPES (KRH) buffer (25 mM HEPES, 5 mM KCl, 0.96 mM NaH2PO4, 1 mM MgSO4, 2 mM CaCl2, 5 mM glucose, 1 mM probenecid, pH 7.4), 50 μl diluted solution per well). Plates are covered with aluminum foil and incubated at 37° C. for 1-2 h in an environment containing 5% CO2. After the incubation, the dye is emptied from the plates, and the cells are washed once with KRH buffer, and resuspended in KRH buffer.
To measure the ability of a test compound to agonize or antagonize a calcium mobilization response in cells expressing capsaicin receptors to capsaicin or other vanilloid agonist, the EC50 of the agonist capsaicin is first determined. An additional 20 μl of KRH buffer and 1 μl DMSO is added to each well of cells, prepared as described above. 100 μl capsaicin in KRH buffer is automatically transferred by the FLIPR instrument to each well. Capsaicin-induced calcium mobilization is monitored using either FLUOROSKAN ASCENT (Labsystems; Franklin, Mass.) or FLIPR (fluorometric imaging plate reader system; Molecular Devices, Sunnyvale, Calif.) instruments. Data obtained between 30 and 60 seconds after agonist application are used to generate an 8-point concentration response curve, with final capsaicin concentrations of 1 nM to 3 μM. KALEIDAGRAPH software (Synergy Software, Reading, Pa.) is used to fit the data to the equation: y=a*(1/(1+(b/x)^c)) to determine the 50% excitatory concentration (EC50) for the response. In this equation, y is the maximum fluorescence signal, x is the concentration of the agonist or antagonist (in this case, capsaicin), a is the Emax, b corresponds to the EC50 value and c is the Hill coefficient. Determination of Agonist Activity
Test compounds are dissolved in DMSO, diluted in 20 μl KRH buffer so that the final concentration of test compounds in the assay well is between 1 μM and 5 μM, and added to cells prepared as described above. The 96 well plates containing prepared cells and test compounds are incubated in the dark, at room temperature for 0.5 to 6 h. It is important that the incubation not continue beyond 6 h. Just prior to determining the fluorescence response, 100 μl capsaicin in KRH buffer at twice the EC50 concentration determined as described above is automatically added by the FLIPR instrument to each well of the 96 well plate for a final sample volume of 200 μl and a final capsaicin concentration equal to the EC50. The final concentration of test compounds in the assay wells is between 1 μM and 5 μM. […] The concentration of antagonist required to provide a 50% decrease, relative to the response observed in the presence of capsaicin and without antagonist, is the IC50 for the antagonist, and is preferably below 1 micromolar, 100 nanomolar, 10 nanomolar or 1 nanomolar.

T1 sequence (Q8NER1 whole entry): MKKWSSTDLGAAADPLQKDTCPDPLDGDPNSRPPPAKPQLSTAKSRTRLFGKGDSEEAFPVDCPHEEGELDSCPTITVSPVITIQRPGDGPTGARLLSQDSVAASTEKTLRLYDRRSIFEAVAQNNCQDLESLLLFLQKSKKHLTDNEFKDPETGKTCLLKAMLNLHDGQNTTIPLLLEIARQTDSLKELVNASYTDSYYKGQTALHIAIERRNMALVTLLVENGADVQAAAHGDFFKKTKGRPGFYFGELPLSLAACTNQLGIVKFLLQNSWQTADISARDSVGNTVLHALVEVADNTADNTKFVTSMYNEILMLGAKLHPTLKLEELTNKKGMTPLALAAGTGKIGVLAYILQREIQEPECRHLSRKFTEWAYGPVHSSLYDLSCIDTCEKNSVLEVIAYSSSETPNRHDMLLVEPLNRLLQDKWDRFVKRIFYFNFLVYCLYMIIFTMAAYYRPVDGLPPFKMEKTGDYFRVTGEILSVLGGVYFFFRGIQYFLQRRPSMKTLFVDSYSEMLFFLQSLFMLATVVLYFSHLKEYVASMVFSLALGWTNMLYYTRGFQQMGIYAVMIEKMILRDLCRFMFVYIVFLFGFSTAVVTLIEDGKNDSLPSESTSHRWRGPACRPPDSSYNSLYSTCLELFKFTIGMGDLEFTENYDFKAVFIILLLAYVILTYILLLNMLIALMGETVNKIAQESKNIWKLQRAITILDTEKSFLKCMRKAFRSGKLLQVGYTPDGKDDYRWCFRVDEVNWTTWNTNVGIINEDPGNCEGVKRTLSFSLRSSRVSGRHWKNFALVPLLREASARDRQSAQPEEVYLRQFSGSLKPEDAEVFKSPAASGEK

| IC50 | Structure (SMILES) |
| --- | --- |
| ≤ 1000 nM | CCOC(=O)c1cnc(N2CCN(c3cc(-c4ccc(F)c(Cl)c4)nc(N4CCCC4C)n3)[C@H](C)C2)c(Cl)c1 (stereo partly drawn) [Example 18, 5-Chloro-6-{4-[6-(3-chloro-4-fluoro-phenyl)-2-(2-methyl-pyrrolidin-l-yl)-pyrimidin-4-yl]-3-(R)-methyl-piperazin-1-yl}-nicotinic acid ethyl ester] |
| ≤ 1000 nM | CC1CCCN1c1nc(-c2ccc(F)c(Cl)c2)cc(N2CCN(c3ncc(CN(C)C)cc3Cl)CC2)n1 (stereo not drawn) [Example 19, (5-Chloro-6-{4-[6-(3-chloro-4-fluoro-phenyl)-2-(2-methyl-pyrrolidin-l-yl)-pyrimidin-4-yl]-piperazin-1-yl}-pyridin-3-ylmethyl)-dimethyl-amine] |
| ≤ 1000 nM | COC(=O)c1cnc(N2CCN(c3cc(-c4ccc(F)c(Cl)c4)nc(N4CCCC4C)n3)CC2)c(Cl)c1 (stereo not shown) [Example 20, 5-Chloro-6-{4-[6-(3-chloro-4-fluoro-phenyl)-2-(2-methyl-pyrrolidin-1-yl)-pyrimidin-4-yl]-piperazin-1-yl}-nicotinic acid methyl ester] |
| ≤ 1000 nM | CC1CCCN1c1nc(-c2ccc(F)c(Cl)c2)cc(N2CCN(c3ncc(C(=O)O)cc3Cl)CC2)n1 (stereo not shown) [Example 21, 5-Chloro-6-{4-[6-(3-chloro-4-fluoro-phenyl)-2-(2-methyl-pyrrolidin-1-yl)-pyrimidin-4-yl]-piperazin-1-yl}-nicotinic acid] |
| ≤ 1000 nM | COc1ccc([N+](=O)[O-])c(N2CCN(c3cc(-c4ccc(F)c(Cl)c4)nc(N4CCCC4C)n3)CC2)n1 (stereo not shown) [Example 22, 4-(3-Chloro-4-fluoro-phenyl)-6-[4-(6-methoxy-3-nitro-pyridin-2-yl)-piperazin-1-yl]-2-(2-methyl-pyrrolidin-1-yl)-pyrimidine] |
| ≤ 1000 nM | CCCN1CCN(c2nc(-c3ccc(F)c(Cl)c3)cc(N3CCN(c4ncc(C(=O)OCC)cc4Cl)CC3)n2)CC1 [Example 23, 5-Chloro-6-{4-[6-(3-chloro-4-fluoro-phenyl)-2-(4-propyl-piperazin-l-yl)-pyrimidin-4-yl] - piperazin-1-yl}-nicotinic acid ethyl ester] |
| ≤ 1000 nM | CC1CCCN1c1nc(-c2ccc(F)c(Cl)c2)cc(N2CCN(c3ncc(C(N)=O)cc3Cl)C[C@H]2C)n1 (stereo partly drawn) [Example 24, 5-Chloro-6-{4-[6-(3-chloro-4-fluoro-phenyl)-2-(2-methyl-pyrrolidin-1-yl)-pyrimidin-4-yl]-3-(R)-methyl-piperazin-l-yl}-nicotinamide] |
| ≤ 1000 nM | CC1CCCN1c1nc(-c2ccc(F)cc2)cc(N2CCN(c3ncc(C(=O)O)cc3Cl)CC2)n1 (stereo not shown) [Example 25, 5-Chloro-6-{4-[6-(4-fluoro-phenyl)-2-(2-methyl-pyrrolidin-1-yl)-pyrimidin-4-yl]-piperazin-1-yl}-nicotinic acid] |
| ≤ 1000 nM | CC1CCCN1c1nc(-c2ccc(F)cc2)cc(N2CCN(c3ncc(CO)cc3Cl)CC2)n1 (stereo not shown) [Example 26, (5-Chloro-6-{4-[6-(4-fluoro-phenyl)-2-(2-methyl-pyrrolidin-1-yl)-pyrimidin-4-yl]-piperazin-1-yl}-pyridin-3-yl)-methanol] |
| ≤ 1000 nM | CCOC(=O)c1cnc(N2CCN(c3cc(-c4ccc(F)cc4)nc(N4CCCC4C)n3)[C@H](C)C2)c(Cl)c1 (stereo partly drawn) [Example 27, 5-Chloro-6-{4-[6-(4-fluoro-phenyl)-2-(2-methyl-pyrrolidin-1-yl)-pyrimidin-4-yl]-3-(R)-methyl-piperazin-1-yl}-nicotinic acid ethyl ester] |
| ≤ 1000 nM | CCOC(=O)c1cnc(N2CCN(c3cc(-c4ccc(F)cc4)nc(N4CCCC4)n3)[C@H](C)C2)c(Cl)c1 [Example 28, 5-Chloro-6-{4-[6-(4-fluoro-phenyl)-2-pyrrolidin-1-yl-pyrimidin-4-yl]-3-(R)-methyl-piperazin-1-yl}-nicotinic acid ethyl ester] |
| ≤ 1000 nM | CC1CCCN1c1nc(-c2ccc(F)cc2)cc(N2CCN(c3ncc(C(=O)O)cc3Cl)C[C@H]2C)n1 (stereo partly drawn) [Example 29, 5-Chloro-6-{4-[6-(4-fluoro-phenyl)-2-(2-methyl-pyrrolidin-1-yl)-pyrimidin-4-yl]-3-(R)-methyl-piperazin-1-yl}-nicotinic acid] |
| ≤ 1000 nM | C[C@@H]1CN(c2ncc(C(=O)O)cc2Cl)CCN1c1cc(-c2ccc(F)cc2)nc(N2CCCC2)n1 [Example 30, 5-Chloro-6-{4-[6-(4-fluoro-phenyl)-2-pyrrolidin-1-yl-pyrimidin-4-yl]-3-(R)-methyl-piperazin-1-yl}-nicotinic acid] |
| ≤ 1000 nM | CC1CCCN1c1nc(-c2ccc(F)cc2)cc(N2CCN(c3ncc(CO)cc3Cl)C[C@H]2C)n1 (stereo partly drawn) [Example 31, (5-Chloro-6-{4-[6-(4-fluoro-phenyl)-2-(2-methyl-pyrrolidin-1-yl)-pyrimidin-4-yl]-3-(R)-methyl-piperazin-1-yl}-pyridin-3-yl)-methanol] |
| ≤ 1000 nM | C[C@@H]1CN(c2ncc(CO)cc2Cl)CCN1c1cc(-c2ccc(F)cc2)nc(N2CCCC2)n1 [Example 32, (5-Chloro-6-{4-[6-(4-fluoro-phenyl)-2-pyrrolidin-1-yl-pyrimidin-4-yl]-3-(R)-methyl-piperazin-1-yl}-pyridin-3-yl)-methanol] |
| ≤ 1000 nM | CC1CCCN1c1nc(-c2ccc(F)cc2)cc(N2CCN(c3ncc(C(N)=O)cc3Cl)C[C@H]2C)n1 (stereo partly drawn) [Example 33, 5-Chloro-6-{4-[6-(4-fluoro-phenyl)-2-(2-methyl-pyrrolidin-1-yl)-pyrimidin-4-yl]-3-(R)-methyl-piperazin-1-yl}-nicotinamide] |
| ≤ 1000 nM | Cc1cc(C(=O)O)cnc1N1CCN(c2cc(-c3ccc(F)cc3)nc(N3CCCC3C)n2)[C@H](C)C1 (stereo partly drawn) [Example 34, 6-{4-[6-(4-Fluoro-phenyl)-2-(2-methyl-pyrrolidin-1-yl)-pyrimidin-4-yl]-3-(R)-methyl-piperazin-1-yl}-5-methyl-nicotinic acid] |
| ≤ 1000 nM | Cc1cc(C(=O)O)cnc1N1CCN(c2cc(-c3ccc(F)cc3)nc(N3CCCC3C)n2)CC1 (stereo not shown) [Example 36, 6-{4-[6-(4-Fluoro-phenyl)-2-(2-methyl-pyrrolidin-1-yl)-pyrimidin-4-yl]-piperazin-1-yl}-5-methyl-nicotinic acid] |
| ≤ 1000 nM | Cc1cc(CO)cnc1N1CCN(c2cc(-c3ccc(F)cc3)nc(N3CCCC3C)n2)[C@H](C)C1 (stereo partly drawn) [Example 37, (6-{4-[6-(4-Fluoro-phenyl)-2-(2-methyl-pyrrolidin-1-yl)-pyrimidin-4-yl]-3-(R)-methyl-piperazin-1-yl}-5-methyl-pyridin-3-yl)-methanol] |
| ≤ 1000 nM | Cc1cc(CO)cnc1N1CCN(c2cc(-c3ccc(F)cc3)nc(N3CCCC3C)n2)CC1 (stereo not shown) [Example 38, (6-{4-[6-(4-Fluoro-phenyl)-2-(2-methyl-pyrrolidin-1-yl)-pyrimidin-4-yl]-piperazin-1-yl}-5-methyl-pyridin-3-yl)-methanol] |
| ≤ 1000 nM | CC1CCCN1c1nc(-c2ccc(F)cc2)cc(N2CCN(c3ncc(CC(=O)O)cc3Cl)CC2)n1 (stereo not shown) [Example 39, (5-Chloro-6-{4-[6-(4-fluoro-phenyl)-2-(2-methyl-pyrrolidin-1-yl)-pyrimidin-4-yl]-piperazin-1-yl}-pyridin-3-yl)-acetic acid] |
| ≤ 1000 nM | CC1CCCN1c1nc(-c2ccc(F)cc2)cc(N2CCN(c3ncc(C(N)=O)cc3Cl)CC2)n1 (stereo not shown) [Example 40, 5-Chloro-6-{4-[6-(4-fluoro-phenyl)-2-(2-methyl-pyrrolidin-1-yl)-pyrimidin-4-yl]-piperazin-1-yl}-nicotinamide] |
